Results: ChEMBL document CHEMBL1201862, “PubChem BioAssay data set” (2004)
Calls of active or inactive are those of the source.

How the values were obtained:
[1] = target: T1, Protein phosphatase methylesterase 1 (Homo sapiens, UniProt Q9Y570); assay: PME-1 inhibitor potency by in-gel ABPP, dose response, selectivity assay for PME-1 inhibitor project, cell lysate, mouse brain cytosol, FP-rhodamine, panel member PME-1 Assay Panel member description: Inhibition of endogenously expressed PME-1 (AID 2366)
[2] = target: T1, Protein phosphatase methylesterase 1; assay: Late stage results from the probe development effort to identify inhibitors of the protein methylesterase PME-1: Gel-based Activity-Based Protein Profiling (ABPP) IC50: Purified enzyme.; assay type: functional
[3] = target: NACHT, LRR and PYD domains-containing protein 3 (Homo sapiens, UniProt Q96P20); assay: NALP3 inhibitors in yeast, dose response, luminescent (AID 488799); assay type: functional
[4] = tested on: Streptococcus sp. 'group A'; assay: growth inhibition of control SK(-) GAS strain, dose response, counter-screen for streptokinase expression inhibitor project, luminescence, kanamycin, BacTiterGlo, confirmation (AID 1900); assay type: functional, organism-based
[5] = tested on: Streptococcus; assay: Group A Streptococcus viability loss, dose response, counter-screen for streptokinase expression inhibitor project, luminescence, BacTiterGlo (AID 1915); assay type: functional, organism-based;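 further: potency for reduction of bacterial viability or growth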
[6] = tested on: INS1; assay: beta cell apoptosis inhibitors, cytokine rescue, dose response, luminescence, retest (AID 449756); assay type: functional, cell-based; conditions: Rattus norvegicus;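 further: cell death triggered by IL-1 beta plus TNF-alpha plus IFN-gamma mixture; protective hits raise ATP signal compared with cytokine alone wells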
[7] = target: Voltage-gated N-type calcium channel alpha-1B subunit/Amyloid beta A4 precursor protein-binding family A member 1 (Homo sapiens, UniProt Q00975+Q02410); assay: disruptors of Mint-PDZ/N-type channel peptide interaction – biochemical, HTRF, SAR follow-up (AID 2489); assay type: functional
[8] = target: T2, Interleukin-8 (Homo sapiens, UniProt P10145); assay: SAR analysis of GM-Tri-DAP induced IL-8 secretion in MCF-7/NOD1 cells - Set 2. [Related pubchem assays (depositor defined):AID1575, AID1578, AID2333]; assay type: functional, cell-based
T2 sequence (P10145 whole entry): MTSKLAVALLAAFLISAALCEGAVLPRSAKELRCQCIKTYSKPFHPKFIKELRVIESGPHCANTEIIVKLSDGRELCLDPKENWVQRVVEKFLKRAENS

[9] = tested on: HEK293; assay: cells; conditions: Homo sapiens
[10] = target: T2, Interleukin-8; assay: SAR analysis of Tumor necrosis factor alpha (TNF-alpha) induced IL-8 secretion in MCF-7/NOD1 cells - Set 2. [Related pubchem assays (depositor defined):AID1575, AID2250, AID2260]; assay type: functional, cell-based
[11] = target: T3, Nucleotide-binding oligomerization domain-containing protein 1 (Homo sapiens, UniProt Q9Y239); assay: NOD1 signaling inhibitors, SAR follow-up, revised (AID 2333); assay type: functional
T3 sequence (Q9Y239 whole entry): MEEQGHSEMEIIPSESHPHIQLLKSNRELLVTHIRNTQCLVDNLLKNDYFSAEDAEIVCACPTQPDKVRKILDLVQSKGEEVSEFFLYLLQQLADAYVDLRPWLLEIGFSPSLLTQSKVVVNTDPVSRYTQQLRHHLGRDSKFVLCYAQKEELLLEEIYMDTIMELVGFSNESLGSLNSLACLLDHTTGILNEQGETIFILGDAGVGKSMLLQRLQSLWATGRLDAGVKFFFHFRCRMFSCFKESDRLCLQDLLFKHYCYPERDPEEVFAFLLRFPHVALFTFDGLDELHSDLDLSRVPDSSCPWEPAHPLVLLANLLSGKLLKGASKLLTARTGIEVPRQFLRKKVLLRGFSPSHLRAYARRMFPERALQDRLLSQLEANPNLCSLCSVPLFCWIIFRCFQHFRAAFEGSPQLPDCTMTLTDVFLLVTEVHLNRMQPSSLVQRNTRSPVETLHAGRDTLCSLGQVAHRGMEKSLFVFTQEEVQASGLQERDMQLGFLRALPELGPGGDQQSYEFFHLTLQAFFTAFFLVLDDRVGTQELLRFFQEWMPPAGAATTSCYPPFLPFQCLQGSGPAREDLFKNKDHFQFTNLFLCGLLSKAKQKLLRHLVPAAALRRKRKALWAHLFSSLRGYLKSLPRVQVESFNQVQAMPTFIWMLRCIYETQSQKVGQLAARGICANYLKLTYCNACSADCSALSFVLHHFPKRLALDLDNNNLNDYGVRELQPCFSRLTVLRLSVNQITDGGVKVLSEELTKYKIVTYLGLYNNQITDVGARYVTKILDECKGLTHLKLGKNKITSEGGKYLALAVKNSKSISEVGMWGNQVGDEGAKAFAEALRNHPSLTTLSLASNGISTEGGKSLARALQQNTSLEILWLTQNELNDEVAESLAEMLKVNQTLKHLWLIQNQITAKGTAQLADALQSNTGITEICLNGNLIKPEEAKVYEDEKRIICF

[12] = target: T3, Nucleotide-binding oligomerization domain-containing protein 1; assay: SAR analysis of compounds that inhibit NOD1 - Set 2. [Related pubchem assays (depositor defined):AID1566, AID1575, AID1578, AID1849, AID1852, AID2333, AID2335, AID2798]; assay type: functional
[13] = tested on: HEK293; assay: SAR analysis of compounds that are cytotoxic to HEK293 - Set 2. [Related pubchem assays (depositor defined):AID1575, AID1578, AID1849, AID2001, AID2333, AID2334, AID2335, AID2337, AID2800]; assay type: functional, cell-based; conditions: Homo sapiens
[14] = tested on: HEK293; assay: cells; assay type: functional, cell-based; conditions: Homo sapiens
[15] = tested on: HEK293; assay: NOD1 signaling inhibitors, primary screen, cell-based, luminescence, uHTS (AID 1578); assay type: functional; conditions: Homo sapiens
[16] = target: Tumor necrosis factor (Homo sapiens, UniProt P01375); assay: TNFa-triggered NF-kB activation inhibitors, SAR follow-up, cell-based, revised (AID 2337); assay type: functional
[17] = tested on: HEK293; assay: cells; assay type: functional, cell-based; conditions: Homo sapiens; remark: listed apart in the source
[18] = target: T4, Nucleotide-binding oligomerization domain-containing protein 2 (Homo sapiens, UniProt Q9HC29); assay: NOD2 inhibitors, SAR follow-up, set 2 (AID 2475); assay type: functional
[19] = inhibitors of intracellular T. cruzi replication, confirmation, NIH3T3 host cells, beta-gal luminescence (AID 2044); assay type: functional, cell-based;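 further: intracellular parasites grown in NIH/3T3 mouse fibroblasts as host cells; luminescent beta-galactosidase reporter signal from transgenic T. cruzi replicating inside host cells; inhibitors lower the luminescence signal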
[20] = cytotoxicity toward NIH3T3 fibroblasts, dose response, counter-screen, cell-based, ATP luminescence, mouse fibroblasts (AID 2010); assay type: functional;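 further: cells exposed to compound for about 90 hours before reading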
[21] = target: T4, Nucleotide-binding oligomerization domain-containing protein 2; assay: PubChem AID 2334; assay type: functional
[22] = target: T4, Nucleotide-binding oligomerization domain-containing protein 2; assay: NOD2 signaling inhibitors, cell-based, luminescence, uHTS, HEK293 (AID 1566); assay type: functional
[23] = tested on: HEK293; assay: NOD2 signaling inhibitors in MDP-stimulated cells, cell-based, uHTS, luminescence (AID 2001); assay type: functional; conditions: Homo sapiens
[24] = tested on: HEK293; assay: cells; assay type: functional, cell-based; conditions: Homo sapiens; remark: listed apart in the source
[25] = target: Bcl-2-like protein 10 (Homo sapiens, UniProt Q9HD36); assay: displacers of TR3 peptide from Bcl-B, primary screen, selectivity assay for Bfl-1 inhibitor project, biochemical, fluorescence polarization, FITC-TR3 peptide (AID 748);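 further: fluorescence polarization from a fluorescein-labelled TR3 peptide binding purified Bcl-B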
[26] = cells; assay type: functional, cell-based; conditions: PPC-1
[27] = tested on: MDA-MB-435; assay: cells; assay type: functional, cell-based; conditions: Homo sapiens

T4 sequence (Q9HC29 whole entry, the tested form may be a part): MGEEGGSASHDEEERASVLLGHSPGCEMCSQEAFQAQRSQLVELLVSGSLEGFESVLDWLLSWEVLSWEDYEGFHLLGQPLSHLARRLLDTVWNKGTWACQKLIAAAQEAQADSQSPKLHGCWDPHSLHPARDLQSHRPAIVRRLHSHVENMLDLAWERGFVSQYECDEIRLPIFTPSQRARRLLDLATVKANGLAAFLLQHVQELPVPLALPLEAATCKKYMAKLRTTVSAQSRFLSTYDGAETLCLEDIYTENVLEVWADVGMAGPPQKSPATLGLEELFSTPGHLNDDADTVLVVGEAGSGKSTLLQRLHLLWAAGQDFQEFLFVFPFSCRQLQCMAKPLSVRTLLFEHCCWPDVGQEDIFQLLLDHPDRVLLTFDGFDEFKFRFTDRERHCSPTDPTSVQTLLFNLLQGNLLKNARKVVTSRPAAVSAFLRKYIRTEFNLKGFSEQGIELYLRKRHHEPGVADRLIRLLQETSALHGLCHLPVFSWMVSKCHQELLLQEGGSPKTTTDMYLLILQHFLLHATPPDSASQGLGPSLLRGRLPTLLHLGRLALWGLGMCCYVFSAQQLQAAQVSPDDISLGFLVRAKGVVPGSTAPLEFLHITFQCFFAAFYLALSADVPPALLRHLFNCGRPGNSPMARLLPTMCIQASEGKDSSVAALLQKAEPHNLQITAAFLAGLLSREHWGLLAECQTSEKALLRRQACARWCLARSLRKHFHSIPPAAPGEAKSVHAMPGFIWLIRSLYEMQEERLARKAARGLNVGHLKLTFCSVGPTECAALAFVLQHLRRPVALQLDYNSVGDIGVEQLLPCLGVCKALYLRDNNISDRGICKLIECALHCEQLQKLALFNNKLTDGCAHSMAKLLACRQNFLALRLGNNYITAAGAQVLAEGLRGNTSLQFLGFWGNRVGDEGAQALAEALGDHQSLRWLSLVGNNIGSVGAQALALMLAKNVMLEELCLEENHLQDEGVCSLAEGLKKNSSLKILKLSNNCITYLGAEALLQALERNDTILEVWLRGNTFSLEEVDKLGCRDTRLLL
T1 sequence (Q9Y570 whole entry): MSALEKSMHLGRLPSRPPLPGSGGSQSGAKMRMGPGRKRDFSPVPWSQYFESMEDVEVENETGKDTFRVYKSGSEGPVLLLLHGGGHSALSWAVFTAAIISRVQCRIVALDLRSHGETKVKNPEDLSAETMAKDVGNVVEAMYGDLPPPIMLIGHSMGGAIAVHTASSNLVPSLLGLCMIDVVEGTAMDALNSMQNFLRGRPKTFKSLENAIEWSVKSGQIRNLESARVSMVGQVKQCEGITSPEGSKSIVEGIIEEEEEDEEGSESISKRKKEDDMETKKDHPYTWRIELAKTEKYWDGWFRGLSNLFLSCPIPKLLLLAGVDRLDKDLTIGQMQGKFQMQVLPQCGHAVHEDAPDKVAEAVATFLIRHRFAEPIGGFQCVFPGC
Tumor necrosis factor, sequence (P01375 whole entry): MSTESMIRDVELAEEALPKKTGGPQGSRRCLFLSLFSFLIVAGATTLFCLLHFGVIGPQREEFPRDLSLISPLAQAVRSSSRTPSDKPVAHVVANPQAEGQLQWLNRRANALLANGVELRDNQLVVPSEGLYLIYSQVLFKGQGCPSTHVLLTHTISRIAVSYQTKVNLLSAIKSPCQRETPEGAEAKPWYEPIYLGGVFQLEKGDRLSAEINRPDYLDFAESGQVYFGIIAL
Bcl-2-like protein 10, sequence (Q9HD36 whole entry): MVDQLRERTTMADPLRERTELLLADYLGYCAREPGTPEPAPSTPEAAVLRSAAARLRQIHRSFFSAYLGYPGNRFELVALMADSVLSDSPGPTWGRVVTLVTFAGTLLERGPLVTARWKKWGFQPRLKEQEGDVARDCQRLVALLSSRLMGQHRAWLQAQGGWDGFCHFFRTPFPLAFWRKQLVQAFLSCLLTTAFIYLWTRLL
NACHT, LRR and PYD domains-containing protein 3, sequence (Q96P20 whole entry, the tested form may be a part): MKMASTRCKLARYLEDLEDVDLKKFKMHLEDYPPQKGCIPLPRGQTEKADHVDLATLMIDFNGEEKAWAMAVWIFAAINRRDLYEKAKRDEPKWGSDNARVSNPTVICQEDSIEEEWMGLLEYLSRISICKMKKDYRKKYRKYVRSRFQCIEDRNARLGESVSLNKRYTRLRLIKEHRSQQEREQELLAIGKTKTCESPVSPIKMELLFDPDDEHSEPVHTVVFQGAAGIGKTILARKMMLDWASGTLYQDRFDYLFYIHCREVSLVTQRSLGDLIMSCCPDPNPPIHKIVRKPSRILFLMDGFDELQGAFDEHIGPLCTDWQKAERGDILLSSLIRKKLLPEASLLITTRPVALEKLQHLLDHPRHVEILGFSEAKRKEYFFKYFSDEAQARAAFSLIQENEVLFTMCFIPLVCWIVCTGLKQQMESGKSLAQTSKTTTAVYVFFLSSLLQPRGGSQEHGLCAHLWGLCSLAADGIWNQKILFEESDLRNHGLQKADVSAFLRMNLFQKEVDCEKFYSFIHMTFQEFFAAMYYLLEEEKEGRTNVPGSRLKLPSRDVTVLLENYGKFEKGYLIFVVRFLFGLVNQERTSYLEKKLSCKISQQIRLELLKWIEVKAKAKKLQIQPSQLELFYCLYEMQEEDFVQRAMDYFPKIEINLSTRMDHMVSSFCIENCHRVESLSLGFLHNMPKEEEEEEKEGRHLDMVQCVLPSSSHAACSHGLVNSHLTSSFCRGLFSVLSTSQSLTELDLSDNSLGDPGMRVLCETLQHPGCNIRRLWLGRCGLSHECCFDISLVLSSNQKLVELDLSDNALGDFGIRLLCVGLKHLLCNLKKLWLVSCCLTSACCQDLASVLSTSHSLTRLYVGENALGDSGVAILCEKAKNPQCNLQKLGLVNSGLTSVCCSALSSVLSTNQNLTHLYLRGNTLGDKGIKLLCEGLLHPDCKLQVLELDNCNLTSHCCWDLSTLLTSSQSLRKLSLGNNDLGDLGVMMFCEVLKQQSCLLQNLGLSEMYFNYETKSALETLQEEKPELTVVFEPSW

With `CS(=O)(=O)C(=Cc1cccn1S(=O)(=O)c1ccccc1)S(C)(=O)=O` the IC50 [1] was > 20 µM (inactive) and the IC50 [2] was > 20 µM (not active).

With `CC(=O)Oc1c(I)cc(I)cc1C(=O)Nc1ccc(Cl)cc1` [CLIOXANIDE] the IC50 [3] was 1.61 µM (active), the EC50 [4] was 0.377 µM (active) and the EC50 [5] was 0.76 µM (active). The AC50 [6] was 12.5 µM (active).

For `CCOC(=O)N1CCN(C(=O)c2ccc3nc(-c4ccco4)c(-c4ccco4)nc3c2)CC1`, the IC50 [7] was 42.5 µM (active).

In the case of `O=C(Nc1nc2ccccc2n1Cc1ccc(Cl)cc1)c1ccco1`, the IC50 [8] is reported as > 25 µM (inactive), the IC50 [9] is reported as > 20 µM (inactive) and the IC50 [10] is reported as > 25 µM (inactive). The IC50 [11] was > 20 µM (inactive), the IC50 [12] was 3.47 µM (active) and the IC50 [13] was > 20 µM (inactive). For the same compound, the IC50 [14] was > 20 µM (inactive), the EC50 [15] was > 20 µM (inactive) and the IC50 [16] was > 20 µM (inactive). The IC50 [17] was > 20 µM (inactive), the IC50 [18] was 3.63 µM (active) and the EC50 [19] was 1.72 µM (active). The EC50 [20] was > 60 µM (not active), the IC50 [21] was > 20 µM (inactive) and the EC50 [22] was > 20 µM (inactive). The IC50 [23] was 1.96 µM (active) and the IC50 [24] was > 20 µM (inactive).

With `C=CCSc1nnc2nc3c(nn12)c1cc(C)ccc1n3CC=C` the IC50 [25] was > 100 µM (inactive).

With `CSc1nc(-c2ccccc2)nc(-c2ccccc2OC(C)=O)n1` the IC50 [26] was > 10 µM (inactive) and the IC50 [27] was > 10 µM (inactive).
